Results taken from patent US6358885B1, “Substituted phenylheterocyclic herbicides” (Mississippi State University, priority 1992, dated 2002).

Legend:
barley = assay: Test B preemergence/postemergence greenhouse plant response rating 0 to 10; format: in vivo, Hordeum vulgare; conditions: 0 to 10 scale
Summary of the method: (§1)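 Postemergence treatment of plants two to eighteen cm tall ran alongside preemergence treatment of planted seed, each using compound in a non-phytotoxic solvent.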

bedstraw = assay: as above; format: in vivo, Galium aparine; conditions: 0 to 10 scale
Summary of the method: as §1

blackgrass = assay: as above; format: in vivo, Alopecurus myosuroides; conditions: 0 to 10 scale
Summary of the method: as §1

cotton = assay: as above; format: in vivo, Gossypium hirsutum; conditions: 0 to 10 scale
Summary of the method: as §1

lambsquarters = assay: as above; format: in vivo, Chenopodium album; conditions: 0 to 10 scale
Summary of the method: as §1

sorghum [1] = assay: as above; format: in vivo, Sorghum bicolor; conditions: 0 to 10 scale
Summary of the method: as §1

sugar beet = assay: as above; format: in vivo, Beta vulgaris; conditions: 0 to 10 scale
Summary of the method: as §1

wheat [2] = assay: as above; format: in vivo, Triticum aestivum; conditions: 0 to 10 scale
Summary of the method: as §1

wild oat [3] = assay: as above; format: in vivo, Avena fatua; conditions: 0 to 10 scale
Summary of the method: as §1

crabgrass = assay: Test C preemergence/postemergence greenhouse plant response rating 0 to 100; format: in vivo, Digitaria sanguinalis; conditions: POSTEMERGENCE; for Plant response rating, Crabgrass: 0 to 100 scale
Summary of the method: (§2)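 Compounds in non-phytotoxic solvent applied preemergence to sandy loam one day after planting, postemergence at the 1–4 leaf stage, or to ~2.5 cm floodwater over silt loam.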

downy brome = assay: as above; format: in vivo, Bromus tectorum; conditions: POSTEMERGENCE; for Plant response rating Downy Brome: 0 to 100 scale
Summary of the method: as §2

rape = assay: as above; format: in vivo, Brassica napus; conditions: POSTEMERGENCE; for Plant response rating, Rape: 0 to 100 scale
Summary of the method: as §2

ryegrass = assay: as above; format: in vivo, Lolium multiflorum; conditions: POSTEMERGENCE; for Plant response rating Ryegrass: 0 to 100 scale
Summary of the method: as §2

sorghum [4] = assay: as above; format: in vivo, Sorghum bicolor; conditions: POSTEMERGENCE; for Plant response rating, Sorghum: 0 to 100 scale
Summary of the method: as §2

wheat [5] = assay: as above; format: in vivo, Triticum aestivum; conditions: POSTEMERGENCE; for Plant response rating, Wheat: 0 to 100 scale
Summary of the method: as §2

wild buckwheat = assay: as above; format: in vivo, Polygonum convolvulus; conditions: POSTEMERGENCE; for Plant response rating, Wild buckwheat: 0 to 100 scale
Summary of the method: as §2

wild oat [6] = assay: as above; format: in vivo, Avena fatua; conditions: POSTEMERGENCE; for Plant response rating, Wild oat: 0 to 100 scale
Summary of the method: as §2

barnyardgrass = assay: Test C flood test plant response rating 0 to 100; format: in vivo, Echinochloa crus-galli; conditions: for Plant response rating Barnyardgrass 2: flood test species listed under POSTEMERGENCE, 0 to 100 scale
Summary of the method: as §2

Fc1cc(Cl)c(OCCCl)cc1-c1nn2c(c1Cl)CCCC2 [Compound 49]
Plant response rating, Barley (barley; POSTEMERGENCE, Rate 50 g/ha): 4 | Plant response rating, Barley (barley; POSTEMERGENCE, Rate 200 g/ha): 5 | Plant response rating, Barley (barley; PREEMERGENCE, Rate 50 g/ha): 0 | Plant response rating, Barley (barley; Rate 200 g/ha, PREEMERGENCE): 0 | Plant response rating, Bedstraw (bedstraw; POSTEMERGENCE, Rate 50 g/ha): 9 | Plant response rating, Bedstraw (bedstraw; POSTEMERGENCE, Rate 200 g/ha): 9 | Plant response rating, Bedstraw (bedstraw; PREEMERGENCE, Rate 50 g/ha): 8 | Plant response rating, Bedstraw (bedstraw; Rate 200 g/ha, PREEMERGENCE): 9 | Plant response rating, Blackgrass (blackgrass; POSTEMERGENCE, Rate 50 g/ha): 4 | Plant response rating, Blackgrass (blackgrass; POSTEMERGENCE, Rate 200 g/ha): 6 | Plant response rating, Blackgrass (blackgrass; PREEMERGENCE, Rate 50 g/ha): 0 | Plant response rating, Blackgrass (blackgrass; Rate 200 g/ha, PREEMERGENCE): 2 | Plant response rating, Cotton (cotton; POSTEMERGENCE, Rate 50 g/ha): 10 | Plant response rating, Cotton (cotton; POSTEMERGENCE, Rate 200 g/ha): 10 | Plant response rating, Cotton (cotton; PREEMERGENCE, Rate 50 g/ha): 2 | Plant response rating, Cotton (cotton; Rate 200 g/ha, PREEMERGENCE): 2 | Plant response rating, Lambsquarter (lambsquarters; PREEMERGENCE, Rate 50 g/ha): 10 | Plant response rating, Lambsquarter (lambsquarters; Rate 200 g/ha, POSTEMERGENCE): 10 | Plant response rating, Lambsquarter (lambsquarters; Rate 200 g/ha, PREEMERGENCE): 10 | Plant response rating, Sorghum (sorghum [1]; POSTEMERGENCE, Rate 50 g/ha): 3 | Plant response rating, Sorghum (sorghum [1]; PREEMERGENCE, Rate 50 g/ha): 0 | Plant response rating, Sorghum (sorghum [1]; Rate 200 g/ha, POSTEMERGENCE): 5 | Plant response rating, Sorghum (sorghum [1]; Rate 200 g/ha, PREEMERGENCE): 1 | Plant response rating, Sugar beet (sugar beet; POSTEMERGENCE, Rate 50 g/ha): 10 | Plant response rating, Sugar beet (sugar beet; PREEMERGENCE, Rate 50 g/ha): 9 | Plant response rating, Sugar beet (sugar beet; Rate 200 g/ha, POSTEMERGENCE): 10 | Plant response rating, Sugar beet (sugar beet; Rate 200 g/ha, PREEMERGENCE): 10 | Plant response rating, Wheat (wheat [2]; POSTEMERGENCE, Rate 50 g/ha): 5 | Plant response rating, Wheat (wheat [2]; PREEMERGENCE, Rate 50 g/ha): 0 | Plant response rating, Wheat (wheat [2]; Rate 200 g/ha, POSTEMERGENCE): 4 | Plant response rating, Wheat (wheat [2]; Rate 200 g/ha, PREEMERGENCE): 2 | Plant response rating, Wild oat (wild oat [3]; POSTEMERGENCE, Rate 50 g/ha): 3 | Plant response rating, Wild oat (wild oat [3]; PREEMERGENCE, Rate 50 g/ha): 0 | Plant response rating, Wild oat (wild oat [3]; Rate 200 g/ha, POSTEMERGENCE): 4 | Plant response rating, Crabgrass (crabgrass; 62 g/ha): 20 | Plant response rating, Crabgrass (crabgrass; 250 g/ha): 40 | Plant response rating (0 to 100), Crabgrass (crabgrass; Rate 4 g/ha): 10 | Plant response rating (0 to 100), Crabgrass (crabgrass; Rate 16 g/ha): 10 | Plant response rating Downy Brome (downy brome; 62 g/ha): 60 | Plant response rating Downy Brome (downy brome; 250 g/ha): 70 | Plant response rating (0 to 100), Downy Brome (downy brome; Rate 4 g/ha): 30 | Plant response rating (0 to 100), Downy Brome (downy brome; Rate 16 g/ha): 40 | Plant response rating, Rape (rape; 62 g/ha): 70 | Plant response rating, Rape (rape; 250 g/ha): 100 | Plant response rating (0 to 100), Rape (rape; Rate 4 g/ha): 50 | Plant response rating (0 to 100), Rape (rape; Rate 16 g/ha): 60 | Plant response rating Ryegrass (ryegrass; 62 g/ha): 50 | Plant response rating Ryegrass (ryegrass; 250 g/ha): 60 | Plant response rating (0 to 100), Ryegrass (ryegrass; Rate 4 g/ha): 20 | Plant response rating (0 to 100), Ryegrass (ryegrass; Rate 16 g/ha): 40 | Plant response rating, Sorghum (sorghum [4]; 62 g/ha): 50 | Plant response rating, Sorghum (sorghum [4]; 250 g/ha): 60 | Plant response rating (0 to 100), Sorghum (sorghum [4]; Rate 4 g/ha): 30 | Plant response rating (0 to 100), Sorghum (sorghum [4]; Rate 16 g/ha): 40 | Plant response rating, Wheat (wheat [5]; 62 g/ha): 50 | Plant response rating, Wheat (wheat [5]; 250 g/ha): 70 | Plant response rating (0 to 100), Wheat (wheat [5]; Rate 4 g/ha): 10 | Plant response rating (0 to 100), Wheat (wheat [5]; Rate 16 g/ha): 20 | Plant response rating, Wild buckwheat (wild buckwheat; 62 g/ha): 100 | Plant response rating, Wild buckwheat (wild buckwheat; 250 g/ha): 100 | Plant response rating (0 to 100), Wild buckwheat (wild buckwheat; Rate 4 g/ha): 100 | Plant response rating (0 to 100), Wild buckwheat (wild buckwheat; Rate 16 g/ha): 100 | Plant response rating, Wild oat (wild oat [6]; 62 g/ha): 50 | Plant response rating, Wild oat (wild oat [6]; 250 g/ha): 60 | Plant response rating (0 to 100), Wild oat (wild oat [6]; Rate 4 g/ha): 20 | Plant response rating (0 to 100), Wild oat (wild oat [6]; Rate 16 g/ha): 40 | Plant response rating (0 to 100), Barnyardgrass 2 (barnyardgrass; POSTEMERGENCE section, flood test, Rate 4 g/ha): 90 | Plant response rating (0 to 100), Barnyardgrass 2 (barnyardgrass; Rate 16 g/ha, under POSTEMERGENCE head (flood test species)): 100 | Plant response rating Barnyardgrass 2 (barnyardgrass; 62 g/ha): 100 | Plant response rating Barnyardgrass 2 (barnyardgrass; 250 g/ha): 100
